Assay results as given in patent US10351500B2, “Method of using of dihydro-resveratrol or its stilbenoid derivatives and/or chemical variants as antimicrobial agents” (Hong Kong Baptist University, priority 2015, dated 2019).

Experiments:
Trichophyton rubrum = test: anti-fungal growth inhibition, T. rubrum; type: cell-based; conditions: T. rubrum; for inhibition at 25 µM / inhibition at 50 µM / inhibition at 100 µM: Trichophyton rubrum, 168 h, one week, 30° C., OD 510 nm; for inhibition at 25 µM: read-out: Inhibition rate (25 μM); for inhibition at 50 µM: read-out: Inhibition rate (50 μM); for inhibition at 100 µM: read-out: Inhibition rate (100 μM)
Protocol: (§1) Evaluation of anti-fungal activity. In a single well of the 96-well microplate, 10 μL of the testing compound is added into 190 μL of growth medium (Difco™ YM) containing an overnight culture of Trichophyton rubrum or Trichophyton mentagrophytes at a density of approximately 5×10^5 CFU. The testing compounds include dihydro-resveratrol and DR1 to DR11. Wells incubated with 10 μL 0.5% DMSO only (i.e. no testing compound) are served as the experimental control of fungal growth whilst those incubated with growth medium only (i.e. no fungi) are served as the negative control. […] The percentage of growth inhibition of T. mentagrophytes by the different concentrations of testing compounds is shown in Table 10 whilst the percentage of growth inhibition of T. rubrum is shown in Table 11. The images of T. mentagrophytes culture are captured post treatment of dihydro-resveratrol (100 μM) and DR8 (100 μM) when compared to the growth of experimental control and negative control (FIG. 30).

[1] = system: Trichophyton mentagrophytes; test: anti-fungal growth inhibition, T. mentagrophytes; type: cell-based; conditions: T. mentagraphytes; for inhibition at 25 µM / inhibition at 50 µM / inhibition at 100 µM: Trichophyton mentagrophytes, 168 h, one week, 30° C., OD 510 nm; for inhibition at 25 µM: read-out: Inhibition rate (25 μM); for inhibition at 50 µM: read-out: Inhibition rate (50 μM); for inhibition at 100 µM: read-out: Inhibition rate (100 μM)
Protocol: as §1

pancreatic acinar cells = type: cell-based; conditions: rat, 24 h
Protocol: Functional intact acini were dissociated from pancreatic tissue using collagenase digestion with mild shearing forces. Acini were cultured in Dulbecco's modification of Eagle's medium (GIBCO) supplemented with 5% fetal bovine serum (GIBCO), 1% penicillin-streptomycin (GIBCO) in a 5% CO2, 95% air humidified atmosphere at 37° C. […] MTT reagent was added to the cells at the end of the 24-hour treatment period. After a 3-hour reaction time, MTT products were dissolved in DMSO and absorbance at 570 nm was taken.

Streptococcus sobrinus = test: anti-bacterial growth inhibition, S. sobrinus; type: cell-based; conditions: S. sobrinus; for inhibition at 25 µM / inhibition at 50 µM / inhibition at 100 µM: Streptococcus sobrinus, 10 hours, 30° C., OD 600 nm; for inhibition at 25 µM: read-out: Inhibition rate (25 μM); for inhibition at 50 µM: read-out: Inhibition rate (50 μM); for inhibition at 100 µM: read-out: Inhibition rate (100 μM)
Protocol: (§2) Evaluation of anti-bacterial activity. In a single well of the 96-well microplate, 10 μL of the testing compound is added into 190 μL of growth medium growth medium (BBL™ Brain Heart Infusion) containing an overnight culture of Streptococcus mutans or Streptococcus sobrinus at a density of approximately 5×10^5 CFU. The testing compounds include dihydro-resveratrol and DR1 to DR11. Wells incubated with 10 μL 0.5% DMSO only (i.e. no testing compound) are served as the experimental control of bacterial growth whilst those incubated with growth medium only (i.e. no bacteria) are served as the negative control. […] The percentage of growth inhibition of S. mutans by the different concentrations of testing compounds is shown in Table 12 whereas the percentage of growth inhibition of S. sobrinus is shown in Table 13. The images of S. mutans culture are captured post treatment of dihydro-resveratrol (100 μM) and DR8 (100 μM) when compared to the growth of experimental control and negative control (FIG. 31).

[2] = system: skin color at the arms of individual human subjects; test: skin colorimeter ITA° measurement after topical stilbenoid solution; type: in vivo
Protocol: To determine the skin color of the individual human subjects, the initial skin conditions at the arms of the individuals are tested by the skin colorimeter MPA 5 on day 0. The individual typology angle (ITA°) is calculated by the colorimeter based on the luminance (L*) and yellow-blue component (b*) values. The greater the ITA° value, the greater the skin whiteness [S. Del Bino and F. Bernerd. Variations in skin colour and the biological consequences of ultraviolet radiation exposure. British Journal of Dermatology 2013; 169 (Suppl. 3), 33-40]. In fact, skin colors are classified into 6 major divisions: very light, light, intermediate, tan, brown and dark as listed in Table 4. Two areas (2 cm×2 cm each) are selected as treated areas whereas regions surrounding the treated areas on the arms are regarded as control areas. A volume of 200 μL of the testing stilbenoids (2% by weight dissolved in ethanol) is applied to the designated area twice a day, day and night. At the end of the first week (day 7), individuals are tested with the skin colorimeter for recording the data about using the stilbenoids for 7 days. Again, at the end of the second week (day 14), individuals are tested with the skin colorimeter for recording the data about using the stilbenoids for 14 days.

Streptococcus mutans = test: anti-bacterial growth inhibition, S. mutans; type: cell-based; conditions: S. mutans; for inhibition at 25 µM / inhibition at 50 µM / inhibition at 100 µM: Streptococcus mutans, 10 hours, 30° C., OD 600 nm; for inhibition at 25 µM: read-out: Inhibition rate (25 μM); for inhibition at 50 µM: read-out: Inhibition rate (50 μM); for inhibition at 100 µM: read-out: Inhibition rate (100 μM)
Protocol: as §2

[3] = ABTS radical decolorization assay (antioxidant capacity); type: biochemical; conditions: 15 min, 734 nm

| SMILES | inhibition at 25 µM (Trichophyton rubrum) [%] | inhibition at 50 µM (Trichophyton rubrum) [%] | inhibition at 100 µM (Trichophyton rubrum) [%] | inhibition at 25 µM [1] [%] | inhibition at 50 µM [1] [%] | inhibition at 100 µM [1] [%] | inhibition at 25 µM (Streptococcus sobrinus) [%] | inhibition at 50 µM (Streptococcus sobrinus) [%] | inhibition at 100 µM (Streptococcus sobrinus) [%] | inhibition at 25 µM (Streptococcus mutans) [%] | inhibition at 50 µM (Streptococcus mutans) [%] | inhibition at 100 µM (Streptococcus mutans) [%] | Trolox equivalent (mg), antioxidant capacity [3] [mg] | also measured |
| --- | --- | --- | --- | --- | --- | --- | --- | --- | --- | --- | --- | --- | --- | --- |
| Oc1ccc(/C=C/c2cc(O)cc(O)c2)cc1 [Trans-resveratrol, trans-resveratrol, reference compound] | 6.56 | 11.6 | 21.6 | 5.35 | 13.9 | 32.4 | 6.71 | 1.17 | 2.46 | 8.91 | 5.77 | 3.83 | – | cytotoxicity (MTT, mitochondrial metabolic rates) (pancreatic acinar cells): roughly 250 μM; whitening effect on skin ([2]; 2% by weight in ethanol, topical twice a day, most individuals): Overt whitening effect; ITA° measurement ([2]; Individual No. 1, day 7, 2% solution topical): 47.7 ± 1.155 °; ITA° measurement ([2]; Individual No. 1, day 14, 2% solution topical): 46.4 ± 0.548 °; ITA° measurement ([2]; Individual No. 2, day 7, 2% solution topical): 39.2 ± 2.564 °; ITA° measurement ([2]; Individual No. 2, day 14, 2% solution topical): 44.8 ± 2.871 °; ITA° measurement ([2]; Individual No. 3, day 7, 2% solution topical): 38.0 ± 1.732 °; ITA° measurement ([2]; Individual No. 3, day 14, 2% solution topical): 36.2 ± 1.789 °; ITA° measurement ([2]; Individual No. 4, day 7, 2% solution topical): 22.4 ± 1.715 °; ITA° measurement ([2]; Individual No. 4, day 14, 2% solution topical): 29.4 ± 1.342 °; ITA° measurement ([2]; Individual No. 5, day 7, 2% solution topical): 26.6 ± 1.159 °; ITA° measurement ([2]; Individual No. 5, day 14, 2% solution topical): 34.0 ± 2.168 °; ITA° measurement ([2]; Individual No. 6, day 7, 2% solution topical): 28.2 ± 2.718 °; ITA° measurement ([2]; Individual No. 6, day 14, 2% solution topical): 41.8 ± 3.372 °; ITA° measurement ([2]; Individual No. 7, day 7, 2% solution topical): 20.6 ± 1.140 °; ITA° measurement ([2]; Individual No. 7, day 14, 2% solution topical): 20.4 ± 0.578 °; ITA° measurement ([2]; Individual No. 8, day 7, 2% solution topical): 14.0 ± 1.232 °; ITA° measurement ([2]; Individual No. 8, day 14, 2% solution topical): 9.6 ± 1.342 °; ITA° measurement ([2]; Individual No. 9, day 7, 2% solution topical): −7.2 ± 1.789 °; ITA° measurement ([2]; Individual No. 9, day 14, 2% solution topical): −7.4 ± 1.140 ° |
| CCOC(=O)COc1ccc(CCc2cc(OCC(=O)OCC)cc(OCC(=O)OCC)c2)cc1 [DR1] | 3.25 | 1.15 | 22.6 | 4.33 | 11.2 | 36.4 | 9.96 | 27.7 | 14.2 | 2.31 | 8.55 | 4.78 | 105.736 | – |
| C=CC(=O)Oc1ccc(CCc2cc(OC(=O)C=C)cc(OC(=O)C=C)c2)cc1 [DR8] | 78.9 | 77.8 | 77.7 | 83.1 | 80.7 | 78.8 | 22.7 | 43.8 | 79.3 | 17.1 | 17.6 | 68 | 15.893 | inhibitory effect among the testing compounds (Trichophyton rubrum; one-week incubation): highest inhibitory effect; inhibitory effect among the testing compounds ([1]; one-week incubation): highest inhibitory effect; inhibitory effect among the testing compounds (Streptococcus sobrinus; 10-hour incubation): highest inhibitory effect; inhibitory effect among the testing compounds (Streptococcus mutans; 10-hour incubation): highest inhibitory effect |
| CC(C)(C)C(=O)Oc1ccc(CCc2cc(OC(=O)C(C)(C)C)cc(OC(=O)C(C)(C)C)c2)cc1 [DR11] | 8.1 | 7.58 | 9.54 | 13.1 | 13.4 | 9.36 | 10.5 | 12.6 | 0.18 | 5.49 | 6.86 | 4.13 | 0 | – |
